Source: US20260085073A1, “PYRAZOLYLCARBOXAMIDE COMPOUNDS AND THEIR USE IN THERAPY” (Hotspot Therapeutics, Inc., priority 2022, published 2026)

What follows are molecules tested against T1, MALT1 (Homo sapiens, UniProt Q9UDY8) (assay: MALT1 inhibition assay (MALT-1 Fluorogenic Peptide Cleavage Assay, Ac-LRSR-AMC substrate)). Conditions: Avi-tagged FL MALT-1, 30 min pre-incubation, 90 min reaction at room temperature, fluorescence intensity.
T1 construct: Avi-tagged FL MALT-1 (Pharmaron, stored at −70° C.); Avi-tag
T1 sequence (Q9UDY8 1-824): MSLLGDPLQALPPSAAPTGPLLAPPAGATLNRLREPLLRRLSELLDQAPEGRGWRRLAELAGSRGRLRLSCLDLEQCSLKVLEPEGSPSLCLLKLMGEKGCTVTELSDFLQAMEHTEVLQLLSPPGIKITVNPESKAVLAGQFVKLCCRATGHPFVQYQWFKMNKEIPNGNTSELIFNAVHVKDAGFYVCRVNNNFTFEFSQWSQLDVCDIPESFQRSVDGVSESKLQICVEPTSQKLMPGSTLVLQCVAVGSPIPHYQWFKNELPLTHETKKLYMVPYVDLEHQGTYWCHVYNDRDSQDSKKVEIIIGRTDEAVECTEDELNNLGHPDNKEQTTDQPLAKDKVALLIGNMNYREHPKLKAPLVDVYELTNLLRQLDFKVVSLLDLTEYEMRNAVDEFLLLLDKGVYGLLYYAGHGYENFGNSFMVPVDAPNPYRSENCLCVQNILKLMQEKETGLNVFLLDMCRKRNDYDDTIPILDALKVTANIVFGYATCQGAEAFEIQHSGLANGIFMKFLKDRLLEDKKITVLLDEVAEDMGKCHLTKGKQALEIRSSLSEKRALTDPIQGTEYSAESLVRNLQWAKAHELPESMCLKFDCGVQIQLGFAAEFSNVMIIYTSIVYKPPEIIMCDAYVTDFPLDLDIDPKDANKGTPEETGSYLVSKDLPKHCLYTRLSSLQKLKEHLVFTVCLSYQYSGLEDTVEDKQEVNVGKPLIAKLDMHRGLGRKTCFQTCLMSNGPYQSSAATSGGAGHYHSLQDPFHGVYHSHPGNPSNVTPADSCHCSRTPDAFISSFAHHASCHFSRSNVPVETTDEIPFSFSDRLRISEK
Assay type: biochemical
Summary of the method: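 Full-length Avi-tagged MALT1 pre-incubated 30 min at room temperature with compounds (2% DMSO final) in HEPES pH 6.89, sodium citrate, TCEP, EDTA, CHAPS buffer. Ac-LRSR-AMC added from 50 µM (Km) or […] working stocks; 90 min at room temperature, AMC fluorescence (ex 342/em 441 nm); IC50 from % inhibition curves.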

Row | IC50 | Structure (SMILES)
1 | 2500 to 10000 nM | Cn1nc(-c2cccc3nccn23)c(C(F)(F)F)c1C(=O)Nc1ccnc(C2CC2)c1 [Compound I-227, N-(2-cyclopropylpyridin-4-yl)-3-(imidazo[1,2-a]pyridin-5-yl)-1-methyl-4-(trifluoromethyl)-1H-pyrazole-5-carboxamide]
2 | > 10000 nM | Cc1cc(-c2nn(C)c(C(=O)Nc3ccnc(C(F)(F)F)c3)c2C(F)(F)F)n2ccnc2c1 [Compound I-228]
3 | 2500 to 10000 nM | Cc1cn2c(-c3nn(C)c(C(=O)Nc4ccnc(C(F)(F)F)c4)c3C(F)(F)F)cccc2n1 [Compound I-229]
4 | 500 to 2500 nM | Cn1nc(-c2cncc3ccsc23)c(C(F)(F)F)c1C(=O)Nc1ccnc(C(F)(F)F)c1 [Compound I-230]
5 | > 10000 nM | Cn1nc(-c2n[nH]c3ncncc23)c(C(F)(F)F)c1C(=O)Nc1ccnc(C(F)(F)F)c1 [Compound I-231]
6 | < 500 nM | COc1ccc2ncsc2c1-c1nn(C)c(C(=O)Nc2ccnc(C(F)(F)F)c2)c1C(F)(F)F [Compound I-232]
7 | 2500 to 10000 nM | Cn1nc(-c2cccn3nncc23)c(C(F)(F)F)c1C(=O)Nc1ccnc(C(F)(F)F)c1 [Compound I-233]
8 | > 10000 nM | Cn1nc(-c2ccc(F)c3ncsc23)c(C(F)(F)F)c1C(=O)Nc1ccnc(C(F)(F)F)c1 [Compound I-234]
9 | 500 to 2500 nM | Cn1nc(-c2cccc3ncsc23)c(C(F)(F)F)c1C(=O)Nc1ccc(C(=O)N2CC(O)C2)c(Cl)c1 [Compound I-235]
10 | 2500 to 10000 nM | Cn1nc(-c2cccc3cnoc23)c(C(F)(F)F)c1C(=O)Nc1ccnc(C(F)(F)F)c1 [Compound I-236]
11 | 500 to 2500 nM | Cn1nc(-c2nccc3ccsc23)c(C(F)(F)F)c1C(=O)Nc1ccnc(C(F)(F)F)c1 [Compound I-237]
12 | 2500 to 10000 nM | Cc1ccc(-c2nn(C)c(C(=O)Nc3ccnc(C(F)(F)F)c3)c2C(F)(F)F)n2ccnc12 [Compound I-238]
13 | > 10000 nM | Cn1nc(-c2n[nH]c3ccncc23)c(C(F)(F)F)c1C(=O)Nc1ccnc(C(F)(F)F)c1 [Compound I-239]
14 | 2500 to 10000 nM | Cn1nc(-c2cccc3ncccc23)c(C(F)(F)F)c1C(=O)Nc1ccc(C(=O)N2CC(O)C2)c(Cl)c1 [Compound I-240]
15 | 2500 to 10000 nM | Cn1nc(-c2cccc3nccn23)c(C(F)(F)F)c1C(=O)Nc1ccc(C(=O)N2CC(O)C2)c(Cl)c1 [Compound I-241, N-(3-Chloro-4-(3-hydroxyazetidine-1-carbonyl)phenyl)-3-(imidazo[1,2-a]pyridin-5-yl)-1-methyl-4-(trifluoromethyl)-1H-pyrazole-5-carboxamide]
16 | 2500 to 10000 nM | Cn1nc(-c2n[nH]c3ncccc23)c(C(F)(F)F)c1C(=O)Nc1ccnc(C(F)(F)F)c1 [Compound I-242]
17 | 500 to 2500 nM | Cn1nc(-c2cccc3[nH]c(=O)sc23)c(C(F)(F)F)c1C(=O)Nc1ccnc(C(F)(F)F)c1 [Compound I-243]
18 | 500 to 2500 nM | Cn1nc(-c2nsc3ccccc23)c(C(F)(F)F)c1C(=O)Nc1ccnc(C(F)(F)F)c1 [Compound I-244]
19 | 500 to 2500 nM | Cn1nc(-c2cc(Cl)cc3nccn23)c(C(F)(F)F)c1C(=O)Nc1ccnc(C(F)(F)F)c1 [Compound I-245]
20 | 2500 to 10000 nM | Cn1nc(-c2cccc3oncc23)c(C(F)(F)F)c1C(=O)Nc1ccnc(C(F)(F)F)c1 [Compound I-246]
21 | 500 to 2500 nM | Cn1nc(-c2ccnc3nccn23)c(C(F)(F)F)c1C(=O)Nc1ccnc(C(F)(F)F)c1 [Compound I-247]
22 | > 10000 nM | Cn1nc(-c2ccc(Cl)c3nccn23)c(C(F)(F)F)c1C(=O)Nc1ccnc(C(F)(F)F)c1 [Compound I-248]
23 | 2500 to 10000 nM | Cn1nc(-c2cccc3[nH]c(=O)ccc23)c(C(F)(F)F)c1C(=O)Nc1ccnc(C(F)(F)F)c1 [Compound I-249]
24 | 500 to 2500 nM | Cn1nc(-c2cccc3ncc(F)cc23)c(C(F)(F)F)c1C(=O)Nc1ccnc(C(F)(F)F)c1 [Compound I-250]
25 | 500 to 2500 nM | Cn1nc(-c2c(F)ccc3nc(N)sc23)c(C(F)(F)F)c1C(=O)Nc1ccnc(C(F)(F)F)c1 [Compound I-251]

Row | IC50 | Structure (SMILES)
26 | 2500 to 10000 nM | Cn1nc2c(c1C(=O)Nc1ccnc(C(F)(F)F)c1)CCCc1ccccc1-2 [Compound I-252]
27 | > 10000 nM | Cn1nc(C(=O)Nc2ccnc(C(F)(F)F)c2)c2c1-c1ccccc1CCC2 [Compound I-253]
28 | 500 to 2500 nM | Cn1nc2c(c1C(=O)Nc1cnc(-n3nccn3)c(Cl)c1)CCCc1ccccc1-2 [Compound I-254]
29 | > 10000 nM | Cn1nc(C(=O)Nc2cnc(-n3nccn3)c(Cl)c2)c2c1-c1ccccc1CCC2 [Compound I-255]
30 | > 10000 nM | Cn1nc2c(c1C(=O)Nc1cnc(-n3nccn3)c(Cl)c1)CCOc1ccccc1-2 [Compound I-256]
31 | 2500 to 10000 nM | Cn1nc2c(c1C(=O)Nc1ccnc(C(F)(F)F)c1)CCc1ccccc1-2 [Compound I-258]
32 | > 10000 nM | Cn1nc2c(c1C(=O)Nc1cnc(-n3nccn3)c(Cl)c1)CCc1ccccc1-2 [Compound I-259]
33 | 500 to 2500 nM | Cn1nc(C(=O)Nc2ccnc(C(F)(F)F)c2)c2c1-c1ccccc1CC2 [Compound I-260]
34 | < 500 nM | Cn1nc(-c2c(F)ccc3ncsc23)c(C(F)(F)F)c1C(=O)Nc1ccnc(C(F)(F)F)c1 [Compound I-280]
35 | 2500 to 10000 nM | CNc1nc2cccc(-c3nn(C)c(C(=O)Nc4ccnc(C(F)(F)F)c4)c3C(F)(F)F)c2s1 [Compound I-281]
36 | > 10000 nM | Cn1nc(-c2cccc3ncsc23)c(C(F)(F)F)c1C(=O)Nc1ccnc(C2CC2)c1 [Compound I-282]
37 | > 10000 nM | Cc1cn2c(-c3nn(C)c(C(=O)Nc4ccnc(C5CC5)c4)c3C(F)(F)F)cccc2n1 [Compound I-283]
38 | < 500 nM | Cn1nc(-c2cccc3nscc23)c(C(F)(F)F)c1C(=O)Nc1cnc(-n2nccn2)c(Cl)c1 [Compound I-285]
39 | < 500 nM | Cn1nc(-c2cccc3ncsc23)c(C(F)(F)F)c1C(=O)Nc1cnc(-n2nccn2)c(C(F)F)c1 [Compound I-286]
40 | > 10000 nM | COc1cc(NC(=O)c2c(C(F)(F)F)c(-c3ccccc3)nn2C)ccn1 [Compound I-287]
41 | 2500 to 10000 nM | Cc1cc(NC(=O)c2c(C(F)(F)F)c(-c3ccccc3)nn2C)cc(C)n1 [Compound I-288]
42 | 500 to 2500 nM | Cn1nc(-c2ccc(F)c3nccn23)c(C(F)(F)F)c1C(=O)Nc1ccnc(C(F)(F)F)c1 [Compound I-291]
43 | > 10000 nM | CN(C)c1nc2cccc(-c3nn(C)c(C(=O)Nc4ccnc(C(F)(F)F)c4)c3C(F)(F)F)c2s1 [Compound I-292]
44 | > 10000 nM | COc1nc2cccc(-c3nn(C)c(C(=O)Nc4ccnc(C(F)(F)F)c4)c3C(F)(F)F)c2s1 [Compound I-293]
45 | < 500 nM | COc1nc2cccc(-c3nn(C)c(C(=O)Nc4cnc(-n5nccn5)c(Cl)c4)c3C(F)(F)F)c2s1 [Compound I-294]
46 | 2500 to 10000 nM | Cn1nc(-c2cncc3ncccc23)c(C(F)(F)F)c1C(=O)Nc1ccnc(C(F)(F)F)c1 [Compound I-295]
47 | 500 to 2500 nM | Cn1nc(-c2c(F)ccc3nccn23)c(C(F)(F)F)c1C(=O)Nc1ccnc(C(F)(F)F)c1 [Compound I-296]
48 | < 500 nM | Cc1nc2cccc(-c3nn(C)c(C(=O)Nc4cnc(-n5nccn5)c(Cl)c4)c3C(F)(F)F)c2s1 [Compound I-297]
49 | > 10000 nM | Cc1nc2cccc(-c3nn(C)c(C(=O)Nc4ccnc(C5CC5)c4)c3C(F)(F)F)c2s1 [Compound I-298]
50 | < 500 nM | Cn1nc(-c2cccc3nc(N)sc23)c(C(F)(F)F)c1C(=O)Nc1cnc(-n2nccn2)c(Cl)c1 [Compound I-299, 3-(2-aminobenzo[d]thiazol-7-yl)-N-(5-chloro-6-(2H-1,2,3-triazol-2-yl)pyridin-3-yl)-1-methyl-4-(trifluoromethyl)-1H-pyrazole-5-carboxamide]
